From patent US10800778B2 (Entasis Therapeutics Limited, priority 2016, dated 2020)
Structures can show the parent of a compound that is named as a salt. Each block holds one molecule with its values, some of them ahead of it.

How the values were obtained:
[1] = target: TEM-1 (Class A beta-lactamase) (Escherichia coli, UniProt P62593); assay: Inhibition of beta-lactamase enzymes (nitrocefin hydrolysis), TEM-1; format: biochemical; conditions: read-out: Class A TEM-1 60 min IC50, nitrocefin 100 μM
Sequence of TEM-1 (Class A beta-lactamase) (P62593 whole entry, looked up, species assumed): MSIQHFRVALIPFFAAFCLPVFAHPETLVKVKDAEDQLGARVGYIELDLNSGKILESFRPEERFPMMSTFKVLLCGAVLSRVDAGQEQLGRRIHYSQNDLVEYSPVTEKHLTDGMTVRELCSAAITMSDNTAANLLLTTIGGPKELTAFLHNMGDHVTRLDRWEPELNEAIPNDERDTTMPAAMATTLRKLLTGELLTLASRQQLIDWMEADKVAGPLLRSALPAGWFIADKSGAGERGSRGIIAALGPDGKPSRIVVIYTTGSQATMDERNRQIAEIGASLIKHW
Outline: (§1)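 Nitrocefin (100 μM) hydrolysis followed at 490 nm for 1 h in 0.1 M sodium phosphate pH 7.0, 10 mM NaHCO3, 0.005% Triton X-100, with 3-fold inhibitor dilutions from 100 μM to 62.7 pM. Progress curves fitted globally to give kinact/Ki or Ki; percent inhibition from best-fit absorbance fitted with Hill equation.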

[2] = Rat PK, intravenous and oral; format: in vivo, Sprague-Dawley rats; conditions: Sprague-Dawley, plasma; rat, IV 10 mg/kg; analyte = compound administered
Method: Intravenous rat pharmacokinetics of exemplar compounds were determined in jugular vein cannulated Sprague-Dawley rats (n=3) (Harlan Laboratories, Indianapolis, Ind.) at a dose of 10 mg/kg. Compounds were dissolved and administered intravenously in 0.9% saline, pH 6.5 at a dose volume of 2 mL/kg. […] Oral pharmacokinetic studies were conducted with exemplar compounds at 10 mg/kg equivalents of carboxylic acids. Doses were dissolved and administered orally in 25:75 PEG400: water for injection, pH 4.5 at a dose volume of 10 mL/kg. […] Plasma samples were stored at −80° C. prior to bioanalysis.
Plasma samples were thawed on ice prior to processing. Samples (30 μL) were diluted and proteins precipitated with 180 μL of acetonitrile containing 0.1% formic acid and 250 ng/mL of carbutamide (N1-(butylcarbanoyl)-sulfanilamide, Sigma-Aldrich Catalog # S385433) as an internal standard. Samples were vortexed for 30 seconds, centrifuged at 3400 g for 10 minutes and the supernatant transferred to injection vials.
LC/MS/MS analysis was completed on an AB Sciex QTrap 6500 mass spectrometer in positive ionization mode, coupled to a Schimadzu Nexera LC system. A Waters Atlantis T3 (3 μm, 3.0×50 mm) column was used for chromatographic separation. Injection volume was […] The mobile phase consisted 0.1% formic acid in water (A) and 0.1% formic acid in acetonitrile (B), with a gradient of 2-98% B:A over two minutes.
Plasma concentration vs. time profiles following intravenous (IV) administration and oral (PO) administration of exemplar compounds were analyzed by non-compartment analysis using WinNonLin 6.4.

[3] = test system: E. coli ARC2687 (AmpC, CTX-M-14); assay: Cefpodoxime MIC against clinical isolate E. coli ARC2687; format: cell-based
[4] = target: OXA-48 (Class D beta-lactamase) (Klebsiella pneumoniae, UniProt Q6XEC0); assay: Inhibition of beta-lactamase enzymes (nitrocefin hydrolysis), OXA-48; format: biochemical; conditions: read-out: Class D OXA-48 60 min IC50, nitrocefin 100 μM
Sequence of OXA-48 (Class D beta-lactamase) (Q6XEC0 whole entry, looked up, species assumed): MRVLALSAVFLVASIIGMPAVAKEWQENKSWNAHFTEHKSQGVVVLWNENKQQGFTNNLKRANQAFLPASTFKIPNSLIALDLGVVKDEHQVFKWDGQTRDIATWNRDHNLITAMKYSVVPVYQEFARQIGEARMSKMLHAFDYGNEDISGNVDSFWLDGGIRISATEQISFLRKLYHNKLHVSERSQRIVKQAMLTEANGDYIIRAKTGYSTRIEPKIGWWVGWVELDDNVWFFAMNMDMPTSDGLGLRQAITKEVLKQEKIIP
Outline: as §1

E. coli WT (ATCC 25922) = assay: MIC, CLSI broth microdilution, beta-lactam with or without BLI; format: cell-based
Method: (§2) The minimal inhibitory concentration (MIC) values against each organism and drug combination were determined using the Clinical and Laboratory Standards Institute guidelines (CLSI) broth microdilution methodology (CLSI M07-A10). The recommended quality control (QC) bacterial strains E. coli ATCC 25922, E. coli ATCC 35218 and Klebsiella pneumoniae ATCC 700603 were incorporated into each test according to the CLSI guidelines to assure that there was no variation between test dates (CLSI M100-S25). The MICs of these QC strains were within QC range on all test occasions. Drug containing plates were made using the master plate method. A cefpodoxime solution was prepared to 20× concentration and 2-fold serial dilutions were made in cation adjusted Mueller-Hinton Broth. Equal volumes of 20× examplar compounds at a fixed concentration were added to the master plate. 10 uL was stamped into daughter plates using a Tecan EVO robot. Organism suspensions were adjusted to a 0.5 McFarland standard and further diluted to yield a final inoculum between 3×10^5 and 7×10^5 colony-forming units (CFU)/mL. Bacterial inocula were made in sterile, cation adjusted Mueller-Hinton Broth (Beckton Dickinson). An inoculum volume of 1.1× concentration of 90 uL was added to wells (using a Tecan EVO robot). All inoculated microdilution plates were incubated in ambient air at 35° C. for 18-24 hours.
(§3) Following the procedure from Example 103, MICs were determined for several beta-lactams in presence of a fixed concentration (4 μg/mL) of exemplar compounds (Table 3) against 3 Enterobacteriaceae strains.

[5] = test system: C. freundii AmpC, TEM-1, CMY65; assay: as above; format: cell-based
Method: as §2, §3

[6] = test system: Klebsiella pneumoniae SHV-18, OXA-2, OKP-6 (ATCC 700603); assay: as above; format: cell-based
Method: as §2, §3

[7] = test system: E. coli AmpC, OXA-1, CTX-M-15, TEM-1; assay: MIC, CLSI broth microdilution, cefpodoxime with or without BLI; format: cell-based; conditions: Escherichia coli, read-out: MIC of beta-lactam alone, heading: MIC of beta-lactam alone, no BLI
Method: as §2

[8] = test system: E. coli ARC2687 (AmpC, CTX-M-14); assay: Mouse neutropenic thigh infection model, oral efficacy of cefpodoxime proxetil with Example 35; format: in vivo
[9] = BLI at fixed 4 μg/ml, K. pneumoniae ATCC 700603

Compound: CC1=C[C@@H](C(N)=O)N2C[C@@H]1N(O[C@H](F)C(=O)O)C2=O [Example 33, (2R)-2-(((2S,5R)-2-carbamoyl-4-methyl-7-oxo-1,6-diazabicyclo[3.2.1]oct-3-en-6-yl)oxy)-2-fluoroacetic acid lithium salt]
IC50 [1]: 0.0032 µM | AUC [2]: 26.3 µM·h | cefpodoxime MIC in combination with BLI ([3]; BLI at 4 μg/mL): < 0.03 µg/mL | IC50 [4]: 0.077 µM | MIC of cefixime in presence of BLI (E. coli WT (ATCC 25922); BLI at fixed 4 μg/ml): ≤0.06 µg/mL | MIC of cefuroxime in presence of BLI (E. coli WT (ATCC 25922); BLI at fixed 4 μg/ml): <0.03125 µg/mL | MIC of faropenem in presence of BLI (E. coli WT (ATCC 25922); BLI at fixed 4 μg/ml): ≤0.06 µg/mL | MIC of tebipenem in presence of BLI (E. coli WT (ATCC 25922); BLI at fixed 4 μg/ml): ≤0.06 µg/mL | MIC of cefixime in presence of BLI ([5]; BLI at fixed 4 μg/ml): ≤0.06 µg/mL | MIC of cefuroxime in presence of BLI ([5]; BLI at fixed 4 μg/ml): <0.03125 µg/mL | MIC of faropenem in presence of BLI ([5]; BLI at fixed 4 μg/ml): ≤0.06 µg/mL | MIC of tebipenem in presence of BLI ([5]; BLI at fixed 4 μg/ml): ≤0.06 µg/mL | MIC of cefixime in presence of BLI [6, 9]: ≤0.06 µg/mL | MIC of cefuroxime in presence of BLI [6, 9]: 4 µg/mL | MIC of faropenem in presence of BLI [6, 9]: 0.5 µg/mL | MIC of tebipenem in presence of BLI [6, 9]: 0.125 µg/mL

MIC [7]: > 64 µg/mL | MIC ([3]; Escherichia coli, cefpodoxime alone): > 512 µg/mL | MIC (E. coli WT (ATCC 25922); Escherichia coli, ATCC25922, no BLI, read-out: MIC of beta-lactam alone): 1 µg/mL | MIC ([5]; Citrobacter freundii, read-out: MIC of beta-lactam alone, no BLI, heading: MIC of beta-lactam alone): > 64 µg/mL | MIC of beta-lactam alone ([5]; no BLI): >64 µg/mL | MIC ([6]; Klebsiella pneumoniae, ATCC700603, no BLI, K. pneumoniae SHV-18, OXA-2, OKP-6 (ATCC 700603), read-out: MIC of beta-lactam alone): 16 µg/mL
Compound: COCC1=C(C(=O)O)N2C(=O)[C@@H](NC(=O)/C(=N\OC)c3csc(N)n3)[C@H]2SC1 [Cefpodoxime, reference compound]

Compound: C[C@@H](O)[C@H]1C(=O)N2C(C(=O)O)=C(S[C@@H]3CN[C@H](C(=O)N(C)C)C3)[C@H](C)[C@H]12 [Meropenem]
reduction in CFU relative to initiation of therapy ([8]; 600 mg/kg q6h administered subcutaneously, positive control): over 1 log10 | log10CFU/gm thigh ([8]; Meropenem 600 mg/kg SC/q6h, positive control, mouse neutropenic thigh, E. coli ARC2687): 5.17 log10CFU/gm thigh | CFU Change from 26 hr ([8]; Meropenem 600 mg/kg SC/q6h, relative to 26 hr growth control): −5.69 log10 CFU/gm | CFU Change from 2 hr ([8]; Meropenem 600 mg/kg SC/q6h, relative to initiation of therapy): −1.10 log10 CFU/gm
